According to patent publication US20080025918A1, “Invisible light fluorescent platelets for intraoperative detection of vascular thrombosis” (Beth Israel Deaconess Medical Center, Inc., priority 2006, published 2008):

Legend:
resting platelets = assay: P-selectin surface expression of resting loaded platelets; assay type: cell-based, human; settings: resting platelets loaded with 2 μM IR-786
washed pig platelets = assay: Pig platelet aggregation (aggregometry); assay type: cell-based; settings: washed pig platelets incubated 30 minutes with 2 μM IR-786
Experimental: To ensure that platelets loaded with 2 μM IR-786 retained function, the ability of IR-786-loaded platelets to aggregate in response to agonists was assessed. Loaded and non-loaded human platelets, resuspended at a density of 4×10^8 cells/mL in modified Tyrodes-HEPES buffer, were stimulated with agonists in siliconized glass tubes in an optical aggregometer (Chronolog, Havertown, Pa.). Assays were performed at 37° C. and with constant stirring. Aggregation was monitored by measurement of optical density of the platelet suspension (Croce et al., J. Biol. Chem., 1999; 274(51):36321-36327)
The ability of pig platelets to aggregate following incubation with IR-786 was also tested, using aggregometry as described above.

[1] = Spectral characteristics and relative fluorescence yield of IR-786 (absorbance and fluorescence measurements); assay type: physicochemical; settings: for Relative Fluorescence Yield: samples matched for absorbance, 655 nm excitation
Experimental: Absorbance and fluorescence measurements were performed in 1 cm quartz cuvettes as described previously (Ohnishi et al., Mol. Imaging., 2005; 4(3):172-181). For measurement of relative fluorescence yield, IR-786 samples in Tyrodes-HEPES, methanol, or concentrated in washed platelets were matched for absorbance (0.1 A units) and area under the fluorescence emission curve calculated after excitation with a 5 mW 655 nm laser diode.

[2] = following incorporation into platelets

SMILES: CN1C(=CC=C2CCCC(C=CC3=[N+](C)c4ccccc4C3(C)C)=C2Cl)C(C)(C)c2ccccc21.[O-][Cl+3]([O-])([O-])[O-] [IR-786]
- P-selectin surface expression (platelet activation) (resting platelets): no significant P-selectin surface expression
- aggregation in response to thrombin or CRP (washed pig platelets): aggregated normally
- emission maximum [1, 2]: 804 nm
- excitation maximum [1, 2]: 788 nm
- Peak Absorbance ([1]; in Methanol): 775 nm
- Peak Emission ([1]; in Methanol): 797 nm
- Relative Fluorescence Yield ([1]; in Methanol): 9.5
- Peak Absorbance ([1]; in Platelets): 788 nm
- Peak Emission ([1]; in Platelets): 804 nm
- Relative Fluorescence Yield ([1]; in Platelets): 1.0
- Peak Absorbance ([1]; in Tyrode's-HEPES): 769 nm
- Peak Emission ([1]; in Tyrode's-HEPES): 789 nm
- Relative Fluorescence Yield ([1]; in Tyrode's-HEPES): 1.4
- emission maximum ([1]; in aqueous buffer): 788.8 nm
- excitation maximum ([1]; in aqueous buffer): 769.3 nm
